# Measured values as given in patent US9018208B2, “Heterocycles as potassium channel modulators” (Icagen Inc., priority 2007, dated 2015).
# pEC50: −log10 of the molar value.
# Tested on: SH-SY5Y M-currents (KCNQ2, KCNQ3 and KCNQ5)
# Assay: SH-SY5Y native cell line FLIPR assay (voltage-sensitive dye DiBAC)
# Format: cell-based, mouse neuroblastoma, rat glioma hybrid cell line
# Settings: FLIPR assay, SH-SY5Y native cell line; Table 1; read-out: SH-SY5Y EC50
# Outline: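 Response is peak DiBAC fluorescence change, normalised to the maximum from a positive control agent, sampled every 30 s over 25 min. Before compound addition, SH-SY5Y cells differentiated with PGE1 plus isomethylbutylxanthine were dye-loaded for 1 h in EBSS with […] DiBAC.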
row,pEC50,SMILES
1,> 6.30,"CC(CC(=O)Nc1nc2ccc(F)cn2c1Cc1ccc(C(F)(F)F)cc1)C(F)(F)F (centres unmarked) [Compound 29, 4,4,4-trifluoro-N-(6-fluoro-3-(4-(trifluoromethyl)benzyl)imidazo[1,2-a]pyridin-2-yl)-3-methylbutanamide]"
2,5.00 to 5.52,"O=C(Cc1ccc(F)cc1)Nc1cn2c(C(F)(F)F)cccc2n1 [Compound 13, 2-(4-fluorophenyl)-N-(5-(trifluoromethyl)imidazo[1,2-a]pyridin-2-yl)acetamide]"
3,> 6.30,"CC(C)CCc1c(NC(=O)C2CCCC2)nc2ccc(C(F)(F)F)cn12 [Compound 53, N-(3-isopentyl-6-(trifluoromethyl)imidazo[1,2-a]pyridin-2-yl)cyclopentanecarboxamide]"
4,> 6.30,"O=C(Cc1cccc(Cl)c1)Nc1nc2ccc(C(F)(F)F)cn2c1CC1CCCCC1 [Compound 43, 2-(3-chlorophenyl)-N-(3-(cyclohexylmethyl)-6-(trifluoromethyl)imidazo[1,2-a]pyridin-2-yl)acetamide]"
5,> 6.30,"CC(C)CCc1c(NC(=O)CC(C)(C)C)nc2ccc(C(F)(F)F)cn12 [Compound 31, N-(3-isopentyl-6-(trifluoromethyl)imidazo[1,2-a]pyridin-2-yl)-3,3-dimethylbutanamide]"
6,5.52 to 6.30,"CC(C)CC(=O)Nc1nc2ccc(C(F)(F)F)cn2c1CC(C)(C)C [Compound 63, 3-methyl-N-(3-neopentyl-6-(trifluoromethyl)imidazo[1,2-a]pyridin-2-yl)butanamide]"
7,> 6.30,"O=C(Cc1ccc(F)cc1)Nc1nc2ccc(C(F)(F)F)cn2c1C1CCCC1 [Compound 50, N-(3-cyclopentyl-6-(trifluoromethyl)imidazo[1,2-a]pyridin-2-yl)-2-(4-fluorophenyl)acetamide]"
8,> 6.30,"CC(C)(C)Cc1c(NC(=O)C2CCCCC2)nc2ccc(C(F)(F)F)cn12 [Compound 59, N-(3-neopentyl-6-(trifluoromethyl)imidazo[1,2-a]pyridin-2-yl)cyclohexanecarboxamide]"
9,> 6.30,"O=C(Nc1nc2ccc(C(F)(F)F)cn2c1C1CCCCC1)C1CCCC1 [Compound 54, N-(3-cyclohexyl-6-(trifluoromethyl)imidazo[1,2-a]pyridin-2-yl)cyclopentanecarboxamide]"
10,> 6.30,"O=C(Cc1ccc(F)cc1)Nc1nc2ccc(C(F)(F)F)cn2c1-c1nccs1 [Compound 84, 2-(4-fluorophenyl)-N-(3-(thiazol-2-yl)-6-(trifluoromethyl)imidazo[1,2-a]pyridin-2-yl)acetamide]"
11,> 6.30,"O=C(Cc1ccc(F)cc1)Nc1nc2ccc(C(F)(F)F)cn2c1C1CC1 [Compound 70, N-(3-cyclopropyl-6-(trifluoromethyl)imidazo[1,2-a]pyridin-2-yl)-2-(4-fluorophenyl)acetamide]"

# Same assay, conditions: FLIPR assay, SH-SY5Y native cell line; Table 2; read-out: SH-SY5Y EC50
row,SMILES,pEC50
1,"O=C(CC1CCC1)Nc1nc2ccc(F)cn2c1-c1cccc(OC(F)(F)F)c1 [Compound 266, 2-cyclobutyl-N-(6-fluoro-3-(3-(trifluoromethoxy)phenyl)imidazo[1,2-a]pyridin-2-yl)acetamide]",> 6.30
2,"O=C(Cc1ccc(F)cc1F)Nc1nc2ccc(F)cn2c1-c1ccc(F)cc1 [Compound 136, 2-(2,4-difluorophenyl)-N-(6-fluoro-3-(4-fluorophenyl)imidazo[1,2-a]pyridin-2-yl)acetamide]",5.52 to 6.30
3,"O=C(CC1CCCC1)Nc1nc2cc(C(F)(F)F)ccn2c1-c1ccc(F)cc1F [Compound 125, 2-cyclopentyl-N-(3-(2,4-difluorophenyl)-7-(trifluoromethyl)imidazo[1,2-a]pyridin-2-yl)acetamide]",5.52 to 6.30
4,"O=C(Cc1ccc(F)cc1)Nc1nc2ccccn2c1-c1ccc(C(F)(F)F)cc1 [Compound 204, 2-(4-fluorophenyl)-N-(3-(4-(trifluoromethyl)phenyl)imidazo[1,2-a]pyridin-2-yl)acetamide]",> 6.30
5,"O=C(Cc1ccc(F)cc1)Nc1nc2cc(Cl)c(Cl)cn2c1-c1ccc(C(F)(F)F)cc1 [Compound 236, N-(6,7-dichloro-3-(4-(trifluoromethyl)phenyl)imidazo[1,2-a]pyridin-2-yl)-2-(4-fluorophenyl)acetamide]",> 6.30
6,"O=C(CC1CCCC1)Nc1nc2ccc(F)cn2c1-c1ccc(OC(F)(F)F)cc1 [Compound 170, 2-cyclopentyl-N-(6-fluoro-3-(4-(trifluoromethoxy)phenyl)imidazo[1,2-a]pyridin-2-yl)acetamide]",> 6.30
7,"O=C(NCc1ccc(F)cc1)Nc1nc2ccc(F)cn2c1-c1ccc(C(F)(F)F)cc1 [Compound 214, 1-(6-fluoro-3-(4-(trifluoromethyl)phenyl)imidazo[1,2-a]pyridin-2-yl)-3-(4-fluorobenzyl)urea]",5.52 to 6.30
8,"CC1(CC(=O)Nc2nc3ccc(F)cn3c2-c2ccc(OC(F)(F)F)cc2)CCCC1 [Compound 193, N-(6-fluoro-3-(4-(trifluoromethoxy)phenyl)imidazo[1,2-a]pyridin-2-yl)-2-(1-methylcyclopentyl)acetamide]",> 6.30
9,"O=C(Nc1nc2ccc(F)cn2c1-c1ccc(OC(F)(F)F)cc1)C1CCCCCC1 [Compound 291, N-(6-fluoro-3-(4-(trifluoromethoxy)phenyl)imidazopyridin-2-yl)cycloheptanecarboxamide]",> 6.30
10,"O=C(COCc1ccccc1)Nc1nc2ccc(F)cn2c1-c1ccc(OC(F)(F)F)cc1 [Compound 237, 2-(benzyloxy)-N-(6-fluoro-3-(4-(trifluoromethoxy)phenyl)imidazo[1,2-a]pyridin-2-yl)acetamide]",5.00 to 5.52
11,"CC(C)C(C)C(=O)Nc1nc2ccc(F)cn2c1-c1ccc(OC(F)(F)F)c(F)c1 (centres unmarked) [Compound 312, N-(6-fluoro-3-(3-fluoro-4-(trifluoromethoxy)phenyl)imidazo[1,2-a]pyridin-2-yl)-2,3-dimethylbutanamide]",> 6.30

# The remaining lines, values ahead:
row,pEC50,SMILES
1,> 6.30,"Cc1cc(-c2c(NC(=O)CC(C)(C)C)nc3ccc(F)cn23)ccc1Cl [Compound 257, N-(3-(4-chloro-3-methylphenyl)-6-fluoroimidazo[1,2-a]pyridin-2-yl)-3,3-dimethylbutanamide]"
2,5.52 to 6.30,"CC(C)C(C)C(=O)Nc1nc2ccc(F)cn2c1-c1cccc(C(F)(F)F)c1 (centres unmarked) [Compound 288, N-(6-fluoro-3-(3-(trifluoromethyl)phenyl)imidazo[1,2-a]pyridin-2-yl)-2,3-dimethylbutanamide]"
3,5.00 to 5.52,"CC(C)(C)CC(=O)Nc1nc2ncc(F)cn2c1-c1cccc(C(F)(F)F)c1 [Compound 332, N-(6-fluoro-3-(3-(trifluoromethyl)phenyl)imidazo[1,2-a]pyrimidin-2-yl)-3,3-dimethylbutanamide]"
4,> 6.30,"COc1ccc(-c2c(NC(=O)CC(C)(C)C)nc3ccc(F)cn23)cc1C(F)(F)F [Compound 200, N-(6-fluoro-3-(4-methoxy-3-(trifluoromethyl)phenyl)imidazo[1,2-a]pyridin-2-yl)-3,3-dimethylbutanamide]"
5,> 6.30,"Cc1ccc2nc(NC(=O)CC(C)(C)C)c(-c3ccc(F)cc3)n2c1 [Compound 167, N-(3-(4-fluorophenyl)-6-methylimidazo[1,2-a]pyridin-2-yl)-3,3-dimethylbutanamide]"
6,5.52 to 6.30,"CC(C)(C)CC(=O)Nc1nc2ccc(F)cn2c1-c1cccc(C(C)(C)C#N)c1 [Compound 176, N-(3-(3-(2-cyanopropan-2-yl)phenyl)-6-fluoroimidazo[1,2-a]pyridin-2-yl)-3,3-dimethylbutanamide]"
7,5.52 to 6.30,"O=C(CC(F)(F)F)Nc1nc2ccc(F)cn2c1-c1cccc(C(F)(F)F)c1 [Compound 267, 3,3,3-trifluoro-N-(6-fluoro-3-(3-(trifluoromethyl)phenyl)imidazo[1,2-a]pyridin-2-yl)propanamide]"
8,> 6.30,"CC(C)(C)CC(=O)Nc1nc2cc(Cl)c(Cl)cn2c1-c1ccc(C(F)(F)F)cc1 [Compound 233, N-(6,7-dichloro-3-(4-(trifluoromethyl)phenyl)imidazo[1,2-a]pyridin-2-yl)-3,3-dimethylbutanamide]"
9,> 6.30,"CC(C)(C)CC(=O)Nc1nc2ccc(F)cn2c1-c1ccc(Cl)cc1 [Compound 150, N-(3-(4-chlorophenyl)-6-fluoroimidazo[1,2-a]pyridin-2-yl)-3,3-dimethylbutanamide]"
10,5.52 to 6.30,"CC(C)(C)CC(=O)Nc1nc2ccccn2c1-c1ccc(F)cc1 [Compound 221, N-(3(4-fluorophenyl)imidazo[1,2-a]pyridin-2-yl)-3,3-dimethylbutanamide]"
11,> 6.30,"CC(C)(C)CC(=O)Nc1nc2ccc(C(F)(F)F)cn2c1-c1ccc(OC(F)(F)F)cc1 [Compound 178, 3,3-dimethyl-N-(3-(4-(trifluoromethoxy)phenyl)-6-(trifluoromethyl)imidazo[1,2-a]pyridin-2-yl)butanamide]"
12,5.52 to 6.30,"CC(C)(C)CC(=O)Nc1nc2ccc(F)cn2c1-c1ccccc1Cl [Compound 158, N-(3-(2-chlorophenyl)-6-fluoroimidazo[1,2-a]pyridin-2-yl)-3,3-dimethylbutanamide]"

# Same assay, conditions: SH-SY5Y native cell line, FLIPR assay (Table 3); read-out: SH-SY5Y EC50
row,pEC50,SMILES
1,5.00 to 5.52,"CC(CC(=O)Nc1nc2ccc(F)cn2c1-c1ccc(F)cn1)C(F)(F)F (centres unmarked) [Compound 369, 4,4,4-trifluoro-N-(6-fluoro-3-(5-fluoropyridin-2-yl)imidazo[1,2-a]pyridin-2-yl)-3-methylbutanamide]"
2,5.00 to 5.52,"O=C(Nc1nc2ccc(F)cn2c1-c1nc2ccccc2s1)C1CCCC1 [Compound 378, N-(3-(benzo[d]thiazol-2-yl)-6-fluoroimidazo[1,2-a]pyridin-2-yl)cyclopentanecarboxamide]"
3,5.00 to 5.52,"CC(C)(C)CC(=O)Nc1nc2ccc(F)cn2c1-c1ncccn1 [Compound 362, N-(6-fluoro-3-(pyrimidin-2-yl)imidazo[1,2-a]pyridin-2-yl)-3,3-dimethylbutanamide]"

# Same assay, conditions: SH-SY5Y native cell line, FLIPR assay (Table 6); read-out: SH-SY5Y EC50
row,pEC50,SMILES
1,> 6.30,"CC(C)(CC(=O)Nc1nc2ccc(C(F)(F)F)cn2c1C1CCCCC1)C(F)(F)F [Compound 441, N-(3-cyclohexyl-6-(trifluoromethyl)imidazo[1,2-a]pyridin-2-yl)-4,4,4-trifluoro-3,3-dimethylbutanamide]"
